Converted amounts (≈) assume the structure as drawn.
Key:
neutrophil elastase = biological target: T1, neutrophil elastase (Homo sapiens, UniProt P08246); experiment: Human Neutrophil Elastase Assay; type: biochemical; set-up: purchased Calbiochem 324681; conditions: substrate MeOSuc-Ala-Ala-Pro-Val-AMC, pH 7.5, room temperature
T1 sequence (P08246 30-247 limits assumed): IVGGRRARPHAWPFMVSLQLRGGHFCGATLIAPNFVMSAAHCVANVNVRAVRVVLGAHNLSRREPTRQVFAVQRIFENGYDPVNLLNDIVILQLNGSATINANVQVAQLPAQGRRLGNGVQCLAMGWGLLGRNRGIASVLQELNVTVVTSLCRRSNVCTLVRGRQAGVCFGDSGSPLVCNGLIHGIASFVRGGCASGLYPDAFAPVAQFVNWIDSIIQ
How it was run: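 Readout: AMC fluorescence (ex 380, em 460 nm) after 60 min room-temperature reaction with 250 nM MeOSuc-AAPV-AMC, following 15 min compound–enzyme preincubation. Buffer: Tris/NaCl pH 7.5, 0.01% BSA.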

[1] = Metabolic stability with human hepatocytes; type: in vitro ADME; conditions: human hepatocyte suspension, 1 μM, scaled with well stirred model
Protocol: Assay for the Determination of Metabolic Stability with Human Hepatocytes
The metabolic degradation of the test compound is assayed in a human hepatocyte suspension. Human hepatocytes (typically cryopreserved) are incubated in an appropriate buffer system (e.g. Dulbecco's modified eagle medium plus 3.5 μg glucagon/500 mL, 2.5 mg insulin/500 mL and 3.75 mg/500 mL hydrocortison) containing 5% species serum. Following a (typically) […] preincubation in an incubator (37° C., 10% CO2), 5 μl of test compound solution (80 μM; from 2 mM stock solution in DMSO diluted 1:25 with medium) are added into 395 μl hepatocyte suspension (cell density in the range 0.25-5*10^6 cells/mL, typically 1*10^6 cells/mL; final concentration of test compound 1 μM, final DMSO concentration […]). The cells are incubated for six hours (incubator, orbital shaker) and samples (25 μl) are taken at 0, 0.5, 1, 2, 4 and 6 hours. Samples are transferred into acetonitrile and pelleted by centrifugation (5 min). The supernatant is transferred to a new 96-deepwell plate, evaporated under nitrogen and resuspended. The decline of parent compound is analyzed by LC-MS/MS.
The intrinsic clearance CL_[…] is calculated as follows: CL_[…]=Dose/AUC=(C0/CD)/(AUD+clast/k)*1′000/60 (C0: initial concentration in the incubation [μM], CD: cell density of vital cells [10^6 cells/mL], AUD: area under the data [μM*h], clast: concentration of last data point [μM], k: slope of the regression line for parent decline [h^−1])
The calculated in vitro hepatic intrinsic clearance can be scaled up to the intrinsic in vivo hepatic clearance and used to predict hepatic in vivo blood clearance (CL) by the use of a is liver model (well stirred model): CL_[…]_INVIVO [ml/min/kg]=(CL_[…] [μL/min/10^6 cells]* hepatocellularity[10^6 cells/g liver]*liver factor[g/kg bodyweight])/1′000 CL[ml/min/kg]=CL_[…]_INVIVO [ml/min/kg]*hepatic blood flow [ml/min/kg]/(CL_[…]_INVIVO [ml/min/kg]+hepatic blood flow [ml/min/kg]) Qh[%]=CL[ml/min/kg]/hepatic blood flow[ml/min/kg]) (Hepatocellularity, human: 120*10^6 cells/g liver; lver factor, human: 25.7 g/kg bodyweight; blood flow, human: 21 ml/(min*kg))
The predicted human hepatic in vivo blood clearance (CL) of selected compounds in the metabolic stability assay described above are listed in Table 16.

Aqueous solubility = type: physicochemical; conditions: McIlvaine buffer pH 6.8, 2.5% DMSO, 24 h shaking; for solubility at 24 h: McIlvaine buffer with 2.5% DMSO
Protocol: Assay for Determination of Aqueous Solubility
The aqueous solubility of a compound is determined by comparing the amount dissolved in aqueous buffer (containing 2.5% DMSO) to the amount dissolved in an acetonitrile/water (1/1) solution. Starting from a 10 mM DMSO stock solution, aliquots are diluted with acetonitrile/water (1/1) and Mcllvaine buffer pH 6.8, respectively. After 24 h of shaking, the solutions or suspensions are filtered and analyzed by LC-UV. The amount dissolved in buffer is compared to the amount dissolved in the acetonitrile/water (1/1) solution. Solubility is measured from 0.001 to 0.125 mg/ml at a DMSO concentration of 2.5%. If more than 90% of the compound is dissolved in buffer, the value is marked with “>”.

[2] = Metabolic stability with human liver microsomes; type: in vitro ADME; conditions: pooled human liver microsomes, 37° C., 1 mg/ml protein, NADPH; for half-life at 1 nM: pH 7.6, read-out: t1/2 INVITRO
Protocol: Assay for the Determination of Metabolic Stability with Human Liver Microsomes
The metabolic degradation of the test compound is assayed at 37° C. with pooled human liver microsomes. The final incubation volume of […] per time point contains TRIS buffer pH 7.6 (0.1 M), magnesium chloride (5 mM), microsomal protein (1 mg/ml) and the test compound at a final concentration of […]. Following a short preincubation period at 37° C., the reactions are initiated by addition of beta-nicotinamide adenine dinucleotide phosphate, reduced form (NADPH, 1 mM) and terminated by transfering an aliquot into acetonitrile after different time points. Additionally, the NADPH-independent degradation is monitored in incubations without NADPH, terminated at the last time point. The rol remaining test compound after NADPH independent incubation is reflected by the parameter c(control) (metabolic stability). The quenched incubations are pelleted by centrifugation (10′000 g, 5 min) An aliquot of the supernatant is assayed by LC-MS/MS for the amount of parent compound.
The half-life (t1/2 INVITRO) is determined by the slope of the semilogarithmic plot of the concentration-time profile. The intrinsic clearance (CL_[…]) is calculated by considering the amount of protein in the incubation: CL_[…][μl/min/mg protein]=(ln 2/(half-life [min]*protein content [mg/ml]))*1′000.
The half-life (t1/2 INVITRO) values of selected compounds in the metabolic stability assay described above are listed in Table 15.

| solubility at 24 h (Aqueous solubility) [µg/mL] | half-life at 1 nM [2] [h] | Structure (SMILES) | IC50 (neutrophil elastase) [nM] | CL (predicted human hepatic in vivo blood clearance) [1] [mL/min/kg] | Aqueous solubility (Aqueous solubility) [µg/mL] | t1/2 INVITRO [2] [h] |
| --- | --- | --- | --- | --- | --- | --- |
| – | – | CC(C)NC(=O)N1C(=O)N(c2cccc(C(F)(F)F)c2)C2=C(C(=O)CCC2)[C@H]1c1ccc(C#N)cc1S(C)(=O)=O [Example 75.3] | < 1 | 0 | 9 | >2.17 |
| 6 (≈ 12 µM) | > 2.17 | N#Cc1ccc(C2C3=C(CCCC3=O)N(c3cccc(C(F)(F)F)c3)C(=O)N2C(=O)NCCO)cc1 (stereo not drawn) [Example 39.3] | < 1 | – | – | – |
| 9 (≈ 16.1 µM) | > 2.17 | CS(=O)(=O)CCNC(=O)N1C(=O)N(c2cccc(C(F)(F)F)c2)C2=C(C(=O)CCC2)C1c1ccc(C#N)cc1 (stereo not drawn) [Example 39.19] | < 1 | 0 | – | – |
| – | – | CS(=O)(=O)c1cc(C#N)ccc1[C@@H]1C2=C(CCCC2=O)N(c2cccc(C(F)(F)F)c2)C(=O)N1C(=O)NCC(F)F [Example 75.7] | < 1 | 0 | 5 | >2.17 |

— patent US9115093B2, “Substituted bicyclic dihydropyrimidinones and their use as inhibitors of neutrophil elastase activity” (Boehringer Ingelheim International GmbH, priority 2013, dated 2015)
